Assay results as given in US20190314382A1, “COMPOUNDS AND PHARMACEUTICAL COMPOSITIONS THEREOF FOR THE TREATMENT OF INFLAMMATORY DISEASES” (Galapagos NV, priority 2016, published 2019).

Assays:
IL-2 = assay: Biomarker study in RA subjects: serum IL-2, Luminex 18-Plex; assay type: in vivo, human; settings: observed case
Experimental: (§1) Double-blind, placebo-controlled add on study in subjects with moderately to severely active RA who have an inadequate response to MTX (oral or parenteral).
(§2) 595 subjects randomized to one of 6 dose regimens of Compound 1 (dosed as a [Compound 1:HCl:3H2O]) (3 dose levels administered either once or twice daily) or placebo on top of each subject's stable dose of MTX.
(§3) Compound 1 (dosed as a [Compound 1:HCl:3H2O]) is dosed for twelve weeks once daily (q.d.) (50 mg, 100 mg or 200 mg) or twice daily (b.i.d.) (25 mg, 50 mg or 100 mg); or placebo.
(§4) 18 parameters from human serum samples (GM-CSF, IFNγ, IL-1β, IL-2, IL-4, IL-5, IL-6, IL-7, IL-8, IL-10, IL-12 (p70), IL-13, IL-17A, IL-21, IL-23, MIP-1α, MIP-1β and TNF-α) are analyzed on a Luminex Plateform (BioPlex® L200) using a Luminex 18-Plex Kit (Millipore: HSTCMAG-28SK).
(§5) Coupled beads react with the sample containing the biomarker of interest. […] Phycoerythrin (PE) serves as a fluorescent indicator.
(§6) The concentration of bead bound analyte is proportional to the MFI (Median Fluorescent Intensity) and back-calculated from interpolation with the calibration curve fitted with a 4 or 5 parameters logistic (4PL or 5PL) regression model selected during method pre-validation.
(§7) Treatment effect was assessed using an ANCOVA model on the changes from baseline, with factors: treatment, baseline value of the PD marker, geographical region and previous use of biologics.

IL-1β = assay: Biomarker study in RA subjects: serum IL-1β, Luminex 18-Plex; assay type: in vivo, human; settings: observed case
Experimental: as §1, §2, §3, §4, §5, §6, §7

[1] = cited from earlier work
IL-5 = assay: Biomarker study in RA subjects: serum IL-5, Luminex 18-Plex; assay type: in vivo, human; settings: observed case
Experimental: as §1, §2, §3, §4, §5, §6, §7

IL-10 = assay: Biomarker study in RA subjects: serum IL-10, Luminex 18-Plex; assay type: in vivo, human; settings: observed case
Experimental: as §1, §2, §3, §4, §5, §6, §7

MIP-1β = assay: Biomarker study in RA subjects: serum MIP-1β, Luminex 18-Plex; assay type: in vivo, human; settings: observed case
Experimental: as §1, §2, §3, §4, §5, §6, §7

IL-8 = assay: Biomarker study in RA subjects: serum IL-8, Luminex 18-Plex; assay type: in vivo, human; settings: observed case
Experimental: as §1, §2, §3, §4, §5, §6, §7

IL-23 = assay: Biomarker study in RA subjects: serum IL-23, Luminex 18-Plex; assay type: in vivo, human; settings: observed case
Experimental: as §1, §2, §3, §4, §5, §6, §7

[2] = 100 mg qd, Week 12, N = 68, RA subjects on MTX
[3] = 200 mg qd, Week 4, N = 75, RA subjects on MTX
[4] = 200 mg qd, Week 12, N = 75, RA subjects on MTX
[5] = 50 mg bid, Week 4, N = 73, RA subjects on MTX
[6] = 50 mg bid, Week 12, N = 73, RA subjects on MTX
[7] = 100 mg bid, Week 4, N = 79, RA subjects on MTX
[8] = 100 mg bid, Week 12, N = 79, RA subjects on MTX
[9] = 100 mg qd, Week 4, N = 68, RA subjects on MTX

O=C(Nc1nc2cccc(-c3ccc(CN4CCS(=O)(=O)CC4)cc3)n2n1)C1CC1 [Compound 1, cyclopropanecarboxylic acid {5-[4-(1,1-dioxo-thiomorpholin-4-ylmethyl)-phenyl]-[1,2,4]triazolo[1,5-a]pyridin-2yl}-amide]
IL-2 Mean change from baseline at Week 12 (IL-2; [2]): -3.5 pg/mL | IL-2 Mean change from baseline at Week 4 (IL-2; [3]): -2.0 pg/mL | IL-2 Mean change from baseline at Week 12 (IL-2; [4]): -3.3 pg/mL | IL-1βb Mean change from baseline at Week 4 (IL-1β; [5]): 1.4 pg/mL | IL-1βb Mean change from baseline at Week 12 (IL-1β; [6]): -0.9 pg/mL | IL-1βb Mean change from baseline at Week 4 (IL-1β; [7]): -1.0 pg/mL | IL-1βb Mean change from baseline at Week 12 (IL-1β; [8]): -1.8 pg/mL | IL-1βb Mean change from baseline at Week 4 (IL-1β; [9]): -0.6 pg/mL | IL-1βb Mean change from baseline at Week 12 (IL-1β; [2]): -1.2 pg/mL | IL-1βb Mean change from baseline at Week 4 (IL-1β; [3]): -0.6 pg/mL | IL-1βb Mean change from baseline at Week 12 (IL-1β; [4]): -1.6 pg/mL | safety profile ([1]; in particular regarding anemia, lymphocytes, neutrophils, hemoglobin): remarkable safety profile | efficacy in phase II ([1]; rheumatoid arthritis, inflammatory bowel diseases, in particular Crohn's disease): remarkable efficacy | IL-5 Mean change from baseline at Week 4 (IL-5; [5]): -18.2 pg/mL | IL-5 Mean change from baseline at Week 12 (IL-5; [6]): -18.1 pg/mL | IL-5 Mean change from baseline at Week 4 (IL-5; [7]): -0.8 pg/mL | IL-5 Mean change from baseline at Week 12 (IL-5; [8]): -1.5 pg/mL | IL-5 Mean change from baseline at Week 4 (IL-5; [9]): -0.2 pg/mL | IL-5 Mean change from baseline at Week 12 (IL-5; [2]): -0.7 pg/mL | IL-5 Mean change from baseline at Week 4 (IL-5; [3]): 0.1 pg/mL | IL-5 Mean change from baseline at Week 12 (IL-5; [4]): 0.0 pg/mL | IL-10 Mean change from baseline at Week 4 (IL-10; [5]): -2.1 pg/mL | IL-10 Mean change from baseline at Week 12 (IL-10; [6]): -3.7 pg/mL | IL-10 Mean change from baseline at Week 4 (IL-10; [7]): -3.3 pg/mL | IL-10 Mean change from baseline at Week 12 (IL-10; [8]): -4.2 pg/mL | IL-10 Mean change from baseline at Week 4 (IL-10; [9]): 0.1 pg/mL | IL-10 Mean change from baseline at Week 12 (IL-10; [2]): -0.1 pg/mL | IL-10 Mean change from baseline at Week 4 (IL-10; [3]): -0.5 pg/mL | IL-10 Mean change from baseline at Week 12 (IL-10; [4]): -1.5 pg/mL | MIP-1β Mean change from baseline at Week 4 (MIP-1β; [5]): 0.4 pg/mL | MIP-1β Mean change from baseline at Week 12 (MIP-1β; [6]): -1.1 pg/mL | MIP-1β Mean change from baseline at Week 4 (MIP-1β; [7]): -2.1 pg/mL | MIP-1β Mean change from baseline at Week 12 (MIP-1β; [8]): -1.3 pg/mL | MIP-1β Mean change from baseline at Week 4 (MIP-1β; [9]): -0.7 pg/mL | MIP-1β Mean change from baseline at Week 12 (MIP-1β; [2]): -1.7 pg/mL | MIP-1β Mean change from baseline at Week 4 (MIP-1β; [3]): -1.6 pg/mL | MIP-1β Mean change from baseline at Week 12 (MIP-1β; [4]): -1.5 pg/mL | IL-8 Mean change from baseline at Week 4 (IL-8; [5]): 2.3 pg/mL | IL-8 Mean change from baseline at Week 12 (IL-8; [6]): 6.9 pg/mL | IL-8 Mean change from baseline at Week 4 (IL-8; [7]): -1.8 pg/mL | IL-8 Mean change from baseline at Week 12 (IL-8; [8]): 2.4 pg/mL | IL-8 Mean change from baseline at Week 4 (IL-8; [9]): 4.1 pg/mL | IL-8 Mean change from baseline at Week 12 (IL-8; [2]): 0.7 pg/mL | IL-8 Mean change from baseline at Week 4 (IL-8; [3]): -2.0 pg/mL | IL-8 Mean change from baseline at Week 12 (IL-8; [4]): -1.6 pg/mL | IL-23 Mean change from baseline at Week 4 (IL-23; [5]): -772.1 pg/mL | IL-23 Mean change from baseline at Week 12 (IL-23; [6]): -888.7 pg/mL | IL-23 Mean change from baseline at Week 4 (IL-23; [7]): -273.6 pg/mL | IL-23 Mean change from baseline at Week 12 (IL-23; [8]): -831.6 pg/mL | IL-23 Mean change from baseline at Week 4 (IL-23; [9]): 38.3 pg/mL | IL-23 Mean change from baseline at Week 12 (IL-23; [2]): -337.9 pg/mL | IL-23 Mean change from baseline at Week 4 (IL-23; [3]): -435.8 pg/mL | IL-23 Mean change from baseline at Week 12 (IL-23; [4]): -949.7 pg/mL
